# Patent publication US9932340B2, “Substituted indoles” (AbbVie Inc., priority 2014, dated 2018)
# Biological target: SUV420H1 enzyme (Homo sapiens, UniProt Q4FZB7)
# Assay: TR-FRET SAH SUV420H1 enzyme inhibition assay
# Format: biochemical
# Details: Histone Peptide H4(8-30)me1 and SAM, overnight at room temp, TR-FRET detection of SAH, read-out: TR-FRET SAH_SUV420H1 IC50
# Method: Test compounds were dispensed by a Labcyte Echo in 384-well low volume assay plates with 3-fold serial dilutions from 50 μM to 0.00075 μM. 5 μL of SUV420H1 enzyme (Abbvie) at 90 nM was added to all wells except the no enzyme control wells, and incubated for 30 minutes at room temp before 5 μL of Histone Peptide H4(8-30)me1 (Anaspec) at 5 nM and SAM at 4 nM was added to all wells. The plates were incubated in a humidified chamber overnight at room temp and then 10 μL of the detection reagent that contained RIPA buffer (50 mM Tris-HCl, pH 8.0, 150 mM sodium chloride, 1.0% Igepal CA-630 (NP-40), 0.5% sodium deoxycholate and 0.1% sodium dodecyl sulfate) (Sigma) with 2 nM of Terbium chelate anti S-adenosyl-L-homocysteine (SAH) (Abbvie) antibody and Oregon Green labeled SAH at 4 nM was added. The plates were further incubated for 4 hours at room temperature. The plates were read in a Perkin Elmer Envision using a TR-FRET protocol with Excitation set at 335 nm and Emission at 520 and 495 nm. To generate dose response curves the data is normalized to percent inhibition by setting the average of the plus and minus enzyme control wells to 0% and 100% inhibition respectively. The IC50 values for the compounds are generated by fitting the normalized data with Accelrys Assay Explorer 3.3 to a sigmoidal curve model using […] regression, Y=(100*x^n)/(K^n+x^n), where Y is the measured response, x is the compound concentration, n is the Hill Slope and K is the IC50 and the lower and higher asymptotes are constrained to 0 and 100 respectively.
# Sequence of SUV420H1 enzyme (Q4FZB7 whole entry): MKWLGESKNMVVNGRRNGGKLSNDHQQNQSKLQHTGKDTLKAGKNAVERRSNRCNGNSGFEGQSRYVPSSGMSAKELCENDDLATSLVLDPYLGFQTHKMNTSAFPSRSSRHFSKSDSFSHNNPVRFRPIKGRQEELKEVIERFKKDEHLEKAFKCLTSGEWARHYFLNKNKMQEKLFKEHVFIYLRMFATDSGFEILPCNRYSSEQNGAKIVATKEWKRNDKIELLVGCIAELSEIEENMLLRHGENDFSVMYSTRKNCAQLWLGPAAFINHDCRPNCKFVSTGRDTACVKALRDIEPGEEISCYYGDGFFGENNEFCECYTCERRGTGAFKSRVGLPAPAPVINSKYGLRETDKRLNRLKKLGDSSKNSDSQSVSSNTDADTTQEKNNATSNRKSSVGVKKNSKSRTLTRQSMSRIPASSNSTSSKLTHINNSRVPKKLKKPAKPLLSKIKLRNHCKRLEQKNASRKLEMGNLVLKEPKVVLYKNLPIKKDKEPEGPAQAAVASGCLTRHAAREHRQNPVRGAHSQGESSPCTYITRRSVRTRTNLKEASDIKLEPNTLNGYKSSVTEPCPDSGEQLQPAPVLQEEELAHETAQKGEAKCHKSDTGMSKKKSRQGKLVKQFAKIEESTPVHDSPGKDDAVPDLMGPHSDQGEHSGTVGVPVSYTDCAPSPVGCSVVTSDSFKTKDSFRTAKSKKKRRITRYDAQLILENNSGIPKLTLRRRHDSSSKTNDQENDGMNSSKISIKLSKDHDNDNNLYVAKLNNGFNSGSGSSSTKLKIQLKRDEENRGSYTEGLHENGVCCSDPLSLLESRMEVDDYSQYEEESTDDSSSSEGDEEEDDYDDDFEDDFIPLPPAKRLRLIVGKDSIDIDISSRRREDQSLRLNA
row,IC50 [nM],Compound
1,1810,"NCc1cc2c(-c3ccccc3Cl)ccc(Cn3cnc4c(N)ncnc43)c2[nH]1 [Example 72, 9-{[2-(aminomethyl)-4-(2-chlorophenyl)-1H-indol-7-yl]methyl}-9H-purin-6-amine]"
2,722,"NCc1cc2c(-c3ccc(F)cc3)ccc(Cn3cnc4c(N)ncnc43)c2[nH]1 [Example 73, 9-{[2-(aminomethyl)-4-(4-fluorophenyl)-1H-indol-7-yl]methyl}-9H-purin-6-amine]"
3,1180,"NCc1cc2c(-c3ccccc3F)ccc(Cn3cnc4c(N)ncnc43)c2[nH]1 [Example 74, 9-{[2-(aminomethyl)-4-(2-fluorophenyl)-1H-indol-7-yl]methyl}-9H-purin-6-amine]"
4,890,"Cc1ccc(-c2ccc(Cn3cnc4c(N)ncnc43)c3[nH]c(CN)cc23)cc1 [Example 75, 9-{[2-(aminomethyl)-4-(4-methylphenyl)-1H-indol-7-yl]methyl}-9H-purin-6-amine]"
5,1330,"Cc1cccc(-c2ccc(Cn3cnc4c(N)ncnc43)c3[nH]c(CN)cc23)c1 [Example 76, 9-{[2-(aminomethyl)-4-(3-methylphenyl)-1H-indol-7-yl]methyl}-9H-purin-6-amine]"
6,2630,"Cc1ccccc1-c1ccc(Cn2cnc3c(N)ncnc32)c2[nH]c(CN)cc12 [Example 77, 9-{[2-(aminomethyl)-4-(2-methylphenyl)-1H-indol-7-yl]methyl}-9H-purin-6-amine]"
7,632,"COc1ccc(-c2ccc(Cn3cnc4c(N)ncnc43)c3[nH]c(CN)cc23)cc1 [Example 78, 9-{[2-(aminomethyl)-4-(4-methoxyphenyl)-1H-indol-7-yl]methyl}-9H-purin-6-amine]"
8,548,"COc1cccc(-c2ccc(Cn3cnc4c(N)ncnc43)c3[nH]c(CN)cc23)c1 [Example 79, 9-{[2-(aminomethyl)-4-(3-methoxyphenyl)-1H-indol-7-yl]methyl}-9H-purin-6-amine]"
9,1850,"COc1ccccc1-c1ccc(Cn2cnc3c(N)ncnc32)c2[nH]c(CN)cc12 [Example 80, 9-{[2-(aminomethyl)-4-(2-methoxyphenyl)-1H-indol-7-yl]methyl}-9H-purin-6-amine]"
10,334,"CS(=O)(=O)c1ccc(-c2ccc(Cn3cnc4c(N)ncnc43)c3[nH]c(CN)cc23)cc1 [Example 81, 9-({2-(aminomethyl)-4-[4-(methylsulfonyl)phenyl]-1H-indol-7-yl}methyl)-9H-purin-6-amine]"
11,939,"N#Cc1ccc(-c2ccc(Cn3cnc4c(N)ncnc43)c3[nH]c(CN)cc23)cc1 [Example 82, 4-{2-(aminomethyl)-7-[(6-amino-9H-purin-9-yl)methyl]-1H-indol-4-yl}benzonitrile]"
12,831,"N#Cc1cccc(-c2ccc(Cn3cnc4c(N)ncnc43)c3[nH]c(CN)cc23)c1 [Example 83, 3-{2-(aminomethyl)-7-[(6-amino-9H-purin-9-yl)methyl]-1H-indol-4-yl}benzonitrile]"
13,569,"NCc1cc2c(-c3cccc(C(N)=O)c3)ccc(Cn3cnc4c(N)ncnc43)c2[nH]1 [Example 84, 3-{2-(aminomethyl)-7-[(6-amino-9H-purin-9-yl)methyl]-1H-indol-4-yl}benzamide]"
14,605,"CS(=O)(=O)Nc1ccc(-c2ccc(Cn3cnc4c(N)ncnc43)c3[nH]c(CN)cc23)cc1 [Example 85, N-(4-{2-(aminomethyl)-7-[(6-amino-9H-purin-9-yl)methyl]-1H-indol-4-yl}phenyl)methanesulfonamide]"
15,915,"CN(C)C(=O)c1ccc(-c2ccc(Cn3cnc4c(N)ncnc43)c3[nH]c(CN)cc23)cc1 [Example 86, 4-{2-(aminomethyl)-7-[(6-amino-9H-purin-9-yl)methyl]-1H-indol-4-yl}-N,N-dimethylbenzamide]"
16,> 50000,"CC(=O)c1cc2cc(Cl)cc(Cn3cnc4c(N)ncnc43)c2[nH]1 [Example 87, 1-{7-[(6-amino-9H-purin-9-yl)methyl]-5-chloro-1H-indol-2-yl}ethanone]"
17,1430,"CC(N)c1cc2cc(Cl)cc(Cn3cnc4c(N)ncnc43)c2[nH]1 (stereo not drawn) [Example 88, 9-{[2-(1-aminoethyl)-5-chloro-1H-indol-7-yl]methyl}-9H-purin-6-amine]"
18,2600,"CNCc1cc2cc(Cl)cc(Cn3cnc4c(N)ncnc43)c2[nH]1 [Example 89, 9-({5-chloro-2-[(methylamino)methyl]-1H-indol-7-yl}methyl)-9H-purin-6-amine]"

row,IC50 [nM],Compound
1,2240,"CCC(=O)c1cc2cc(Cl)cc(Cn3cnc4c(N)ncnc43)c2[nH]1 [Example 90, 1-{7-[(6-amino-9H-purin-9-yl)methyl]-5-chloro-1H-indol-2-yl}propan-1-one]"
2,2670,"CCC(N)c1cc2cc(Cl)cc(Cn3cnc4c(N)ncnc43)c2[nH]1 (stereo not drawn) [Example 91, 9-{[2-(1-aminopropyl)-5-chloro-1H-indol-7-yl]methyl}-9H-purin-6-amine]"
3,> 50000,"CC(=O)NCc1cc2cc(Cl)cc(Cn3cnc4c(N)ncnc43)c2[nH]1 [Example 92, N-({7-[(6-amino-9H-purin-9-yl)methyl]-5-chloro-1H-indol-2-yl}methyl)acetamide]"
4,9730,"C=CC(=O)NCc1cc2cc(Cl)cc(Cn3cnc4c(N)ncnc43)c2[nH]1 [Example 93, N-({7-[(6-amino-9H-purin-9-yl)methyl]-5-chloro-1H-indol-2-yl}methyl)prop-2-enamide]"
5,31100,"CCC(=O)NCc1cc2cc(Cl)cc(Cn3cnc4c(N)ncnc43)c2[nH]1 [Example 94, N-({7-[(6-amino-9H-purin-9-yl)methyl]-5-chloro-1H-indol-2-yl}methyl)propanamide]"
6,> 50000,"COCC(=O)NCc1cc2cc(Cl)cc(Cn3cnc4c(N)ncnc43)c2[nH]1 [Example 95, N-({7-[(6-amino-9H-purin-9-yl)methyl]-5-chloro-1H-indol-2-yl}methyl)-2-methoxyacetamide]"
7,16300,"Nc1ncnc2c1ncn2Cc1cc(Cl)cc2cc(CNCCC(=O)O)[nH]c12 [Example 96, 3-[({7-[(6-amino-9H-purin-9-yl)methyl]-5-chloro-1H-indol-2-yl}methyl)amino]propanoic acid]"
8,11400,"CCN(CC)Cc1cc2cc(Cl)cc(Cn3cnc4c(N)ncnc43)c2[nH]1 [Example 97, 9-({5-chloro-2-[(diethylamino)methyl]-1H-indol-7-yl}methyl)-9H-purin-6-amine]"
9,11800,"CCCC(=O)NCc1cc2cc(Cl)cc(Cn3cnc4c(N)ncnc43)c2[nH]1 [Example 98, N-({7-[(6-amino-9H-purin-9-yl)methyl]-5-chloro-1H-indol-2-yl}methyl)butanamide]"
10,25100,"CC(C)C(=O)NCc1cc2cc(Cl)cc(Cn3cnc4c(N)ncnc43)c2[nH]1 [Example 99, N-({7-[(6-amino-9H-purin-9-yl)methyl]-5-chloro-1H-indol-2-yl}methyl)-2-methylpropanamide]"
11,10900,"COCCC(=O)NCc1cc2cc(Cl)cc(Cn3cnc4c(N)ncnc43)c2[nH]1 [Example 100, N-({7-[(6-amino-9H-purin-9-yl)methyl]-5-chloro-1H-indol-2-yl}methyl)-3-methoxypropanamide]"
12,> 50000,"Nc1ncnc2c1ncn2Cc1cc(Cl)cc2cc(CN(CC(=O)O)CC(=O)O)[nH]c12 [Example 101, 2,2′-[({7-[(6-amino-9H-purin-9-yl)methyl]-5-chloro-1H-indol-2-yl}methyl)imino]diacetic acid]"
13,6360,"CC(C)CC(=O)NCc1cc2cc(Cl)cc(Cn3cnc4c(N)ncnc43)c2[nH]1 [Example 102, N-({7-[(6-amino-9H-purin-9-yl)methyl]-5-chloro-1H-indol-2-yl}methyl)-3-methylbutanamide]"
14,25300,"CC(C)(O)CC(=O)NCc1cc2cc(Cl)cc(Cn3cnc4c(N)ncnc43)c2[nH]1 [Example 103, N-({7-[(6-amino-9H-purin-9-yl)methyl]-5-chloro-1H-indol-2-yl}methyl)-3-hydroxy-3-methylbutanamide]"
15,18200,"CC(C)(C)CC(=O)NCc1cc2cc(Cl)cc(Cn3cnc4c(N)ncnc43)c2[nH]1 [Example 104, N-({7-[(6-amino-9H-purin-9-yl)methyl]-5-chloro-1H-indol-2-yl}methyl)-3,3-dimethylbutanamide]"
16,8170,"CC(C)CCC(=O)NCc1cc2cc(Cl)cc(Cn3cnc4c(N)ncnc43)c2[nH]1 [Example 105, N-({7-[(6-amino-9H-purin-9-yl)methyl]-5-chloro-1H-indol-2-yl}methyl)-4-methylpentanamide]"
17,3320,"CC(C)(C)OC(=O)CNCc1cc2cc(Cl)cc(Cn3cnc4c(N)ncnc43)c2[nH]1 [Example 106, tert-butyl [({7-[(6-amino-9H-purin-9-yl)methyl]-5-chloro-1H-indol-2-yl}methyl)amino]acetate]"
18,10900,"Nc1ncnc2c1ncn2Cc1cc(Cl)cc2cc(CNC(=O)C3CC3)[nH]c12 [Example 107, N-({7-[(6-amino-9H-purin-9-yl)methyl]-5-chloro-1H-indol-2-yl}methyl)cyclopropanecarboxamide]"
